Reference: patent US20250107999A1, “INJECTABLE FORMULATION CONTAINING ISOXAZOLINE DERIVATIVE” (LG CHEM, LTD., priority 2022, published 2025)

Experiments:
[1] = API stability in solution (solvent of Example 23, HPLC); format: physicochemical; details: 10 mg/ml API
Method: Therefore, in order to measure the content of the active form in the solution after preparing the injection, 10 mg/ml of API was dissolved using the solvent of Example 23, and the concentration and purity of the active API (Compound of Formula 2), which changed over time, were measured using HPLC until 60 minutes after dissolution.

[2] = Confirmation of API solubility according to solvent pH (24 hours, HPLC); format: physicochemical
[3] = system: caspase; experiment: Caspase inhibitory activity; format: biochemical
[4] = Change in content of active compound of Formula 2 over time according to solvent pH (FIG. 1); format: physicochemical
Method: In addition, after dissolving the API in solvents, the change in the content of the active compound of Formula 2 was measured over time.

| SMILES | Peak Area Active ([1]; 30 min after mixing) | Peak Area Inactive ([1]; 30 min after mixing) [%] | Peak Area Active ([1]; 60 min after mixing) [%] | Peak Area Inactive ([1]; 60 min after mixing) [%] | solubility ([2]; acidic solvents with a pH of 4 or less) | solubility ([2]; basic solvents with a pH of 7.5 or more) | solubility ([2]; weakly acidic solvents with a pH of 6 or more) | caspase inhibitory activity [3] | conversion of compound of Formula 2 into compound of Formula 3 ([4]; acidic solvent) | conversion of compound of Formula 2 into compound of Formula 3 ([4]; basic solvent with a neutral pH or higher) |
| --- | --- | --- | --- | --- | --- | --- | --- | --- | --- | --- |
| CC(C)[C@@]1(C(=O)NC2CC(=O)OC2(O)CF)CC(c2nccc3ccccc23)=NO1 (stereo in doubt) [compound of Formula 1, (R)-N-((2S,3S)-2-(fluoromethyl)-2-hydroxy-5-oxotetrahydrofuran-3-yl)-5-isopropyl-3-(isoquinolin-1-yl)-4,5-dihydroisoxazol-5-carboxamide] | about 95.5% | 4.33 | 94.18 | 5.59 | hardly soluble | well soluble | began to dissolve |  |  |  |
| CC(C)[C@@]1(C(=O)N[C@@H](CC(=O)O)C(=O)CF)CC(c2nccc3ccccc23)=NO1 [compound of Formula 2] |  |  |  |  |  |  |  | active form |  |  |
| CC(C)[C@@]1(C(=O)N[C@H](CC(=O)O)C(=O)CF)CC(c2nccc3ccccc23)=NO1 [compound of Formula 3] |  |  |  |  |  |  |  | does not show caspase inhibitory activity | hardly produced | rapidly produced |
